Measurements reported in patent US9896442B2, “Antifungal treatment” (Wisconsin Alumni Research Foundation, priority 2010, dated 2018).

Assays:
Hik1 Saccharomyces = Hik1 Saccharomyces reporter strain growth assay (small molecule screen); assay type: cell-based; details: FIG. 2
Description: To identify putative antifungals that act directly or indirectly through histidine kinase homologs of Drk1, we used a high throughput growth assay that uses a yeast reporter strain expressing a heterologous two-component sensor kinase (Hik1) to identify compounds that target the kinase and inhibit/kill the yeast. Hik1 and Drk1 are very closely related having near 80% amino acid sequence identity (FIG. 1). The Saccharomyces reporter contained an episomal plasmid with the hybrid histidine kinase Hik1 under the control of the galactose promoter (8). The Saccharomyces strain was provided by the Osada lab from RIKEN (Institute of Physical and Chemical Research, 2-1 Hirosawa, Wako, Saitama, 351-0198, Japan). It was used for screening initially. […]

Aspergillus fumigatus = assay: Agar disk diffusion; assay type: cell-based; details: disks containing 1 μg of test compound; FIG. 4
Procedure: Small molecule activity against the fungal pathogens Candida albicans and Aspergillus fumigatus was evaluated using an agar disk diffusion assay. Yeast (1×10^4) from an overnight culture of C. albicans was suspended in 600 μl of top agar (1% yeast extract (ThermoFisher), 2% peptone (ThermoFisher), 2% dextrose (Sigma), and 0.5% agar (Fisher)). This suspension was spread and allowed to solidify on 5 ml of base agar (YPD media containing 2% agar) in the well of a 6-well plate. Disks (6 mm AA, Whatman Inc., Piscataway, N.J., Cat#2017-006) were aseptically placed on a sterile Petri dish lid. Compounds selected from stage II (1 μg total) were each suspended in 100% dimethyl sulfoxide (DMSO) to a total volume of 5 μl, added to separate disks, and allowed to dry for five minutes. Fludioxonil (Sigma) and DMSO-only disks served as positive and negative controls, respectively. Disks were placed into separate wells and incubated at room temperature for 48 hours. Antifungal activity was determined based on the size of the zone of inhibition of C. albicans growth.
Activity against A. fumigatus was determined following the aforementioned disk diffusion assay. The protocol only differed in that 6.0×10^5 conidia were used instead of yeast, and the plates were incubated at 37° C. for 48 hours instead of room temperature (FIG. 4).

Candida albicans biofilm = assay: In vitro biofilm drug synergy (checkerboard, XTT); assay type: cell-based; details: for growth reduction: alone and in combination; for Synergy with Fluconazole by fractional inhibitory concentration (FIC): FIC from EC25, values ≦0.5 indicate synergy, FIG. 9
Procedure: Candida biofilms were formed in 96-well flat-bottom polystyrene plates (Fischer) as described previously ([…], Crawford K, Andes D R. Optimizing a Candida Biofilm Microtiter Plate Model for Measurement of Antifungal Susceptibility by XTT Assay. J. Clin. Microbiol. 2011 Jan., 2). Cells from an overnight culture grown in YPD shaking at 37° C. were enumerated by hemocytometer and suspended in RPMI-MOPS (Fisher) at a concentration of 10^6 cells/ml. A 100 μl of inoculum was added to each well of the plate. After 6 h incubation at 37° C., biofilms were gently washed twice with phosphate-buffered saline (PBS) to remove unattached cells. […] The ranges of concentrations of the fluconazole used included the standard doses given to humans. After overnight incubation at 37° C., biofilms were washed twice with PBS. Measurement of biofilm cell metabolic activity using the XTT reduction assay was performed as previously described ([…], Crawford K, Andes D R. Optimizing a Candida Biofilm Microtiter Plate Model for Measurement of Antifungal Susceptibility by XTT Assay. J. Clin. Microbiol. 2011 January, […], and Andes D. Synergistic Effect of Calcineurin Inhibitors and Fluconazole against Candida albicans Biofilms. Antimicrob Agents Chemother. 2008 March; 52(3): 1127-1132). Briefly, 90 μl of XTT at 1 mg/ml (Sigma) and 10 μl phenazine methosulfate at 320 μg/ml (Sigma) were added to each well, and the plate was incubated at 37° C. for 2 h. Viable cell number was assessed using the Absorbance at 492nm measured using an automated plate reader. Assays were performed in duplicate. The drug concentration resulting in a 25% reduction in optical density compared to the no-drug control wells was determined (EC25).

[1] = system: Candida albicans biofilms; assay: Candida biofilm XTT reduction assay; assay type: cell-based; details: 24 hours, FIG. 6
Procedure: Compound activity against C. albicans biofilm was assessed using a 96-well plate format as previously described by Nett et al. (15). Briefly, the C. albicans inoculum was prepared by diluting an overnight culture grown at 37° C. in RPMI-MOPS to 1×10^6 in RPMI-MOPS based on hemocytometer counts. An aliquot of 100 μl of the inoculum was added to each well of a 96-well flat-bottom polystyrene plate. After a 6-h incubation at 37° C., the wells were washed with phosphate-buffered saline (PBS) three times to remove any non-adherent cells. Fresh medium and fluconazole (Sigma), compound 13, and compound 33 were added and the plates were incubated at 37° C. for 24 hours. The XTT reduction assay was used to quantify the viability of biofilm cell as previously described (11). Briefly, 90 μl of (2,3)-bis-(2-Methoxy-4-Nitro-5-Sulphenyl)-(2H)-Tetrazolium-5-Carboxanilide (XTT; 1 mg/ml) (Sigma) and 10 μl phenazine methosulfate (320 μg/ml) (Sigma) were added to each well, and the plate was incubated for 2 h at 37° C. Cell viability was determined by measuring the absorbance at 490 nm using an automated plate reader. The biofilm growth assay was performed in duplicate.

Drk1 reporter strain = Drk1 reporter strain corroboration; assay type: cell-based
Description: The results of the Hik1 histidine kinase reporter strain were corroborated with a Drk1 reporter strain, especially regarding compounds 13 and 33. Dr. David Andes, Dr. Nancy Keller, and the clinical microbiology laboratory at the University of Wisconsin Hospital provided the microbial strains used in this study (9-12).

[2] = system: drug resistant A. fumigatus; assay: Microbroth dilution (MIC), CLSI M38; assay type: cell-based, Aspergillus fumigatus; details: FIG. 5I
Procedure: (§1) Clinical and Laboratory Standards Institute (CLSI) protocol M27 was used to quantify the minimum inhibitory concentration (MIC) of compounds 13 and 33 against yeast fungal pathogens (13). Briefly, compounds were solubilized in 100% DMSO and serially diluted two-fold in a 96 well plate in 100 μl of RPMI medium. A 100 μl aliquot of RPMI medium containing 3×10^3 yeast/ml of an overnight culture was then added to each well. Medium, medium+yeast, and medium+yeast+DMSO wells were prepared as controls. Each well was prepared in triplicate. The plates were incubated at 35° C. for 48 hours. The MIC concentration was defined as the concentration at which no growth was visible by eye and the results verified by plating on YPD agar. The experiment was performed in duplicate. MIC concentrations were also defined against filamentous fungi using the CLSI protocol M38 (14). This protocol only differed from M27 in that 100 μl of medium containing 4×10^5 spores/ml were added instead of yeast (FIG. 5A-I).

C. lusitaniae = assay: Microbroth dilution (MIC), CLSI M27; assay type: cell-based; details: FIG. 5C
Procedure: as §1

C. gattii = assay: Microbroth dilution (MIC), CLSI M27; assay type: cell-based; details: FIG. 5G
Procedure: as §1

C. krusei = assay: Microbroth dilution (MIC), CLSI M27; assay type: cell-based; details: FIG. 5D
Procedure: as §1

Cryptococcus neoformans = assay: Microbroth dilution (MIC), CLSI M27; assay type: cell-based; details: FIG. 5F
Procedure: as §1

Candida albicans = assay: Microbroth dilution (MIC), CLSI M27; assay type: cell-based; details: FIG. 5A
Procedure: as §1

C. glabrata = assay: Microbroth dilution (MIC), CLSI M27; assay type: cell-based; details: FIG. 5E
Procedure: as §1

[3] = system: wild type Aspergillus fumigatus; assay: Microbroth dilution (MIC), CLSI M38; assay type: cell-based; details: FIG. 5H
Procedure: as §1

Aspergillus flavus = assay: Microbroth dilution against plant fungal pathogen; assay type: cell-based; details: four isolates of A. flavus; FIG. 8
Procedure: as §1, with “M38” left out, “5A-I). […] Briefly, the MICs of compounds 13 and 33 were determined for each of the 4 isolates and compared with the conventional antifungal compound, voriconazole (available from Sigma). […]” for “5A-I).”

[4] = system: C. albicans resistant to conventional antifungals fluconazole and micafungin; assay: Microbroth dilution (MIC), CLSI M27; assay type: cell-based, Candida albicans; details: FIG. 5B
Procedure: as §1

[5] = FIG. 9A, compound 13 experiment: fluconazole at 62.5 ug/ml, 13 at 0.8 ug/ml
[6] = FIG. 9B, compound 33 experiment: fluconazole at 62.5 ug/ml, 33 at 1.6 ug/ml

Procedure for human red blood cells: Briefly, human red blood cells (RBCs) were isolated via FICOLL® (Sigma) gradient centrifugation and stored on ice. The RBCs were pelleted by centrifugation and washed with PBS a total of three times. A 2% RBC suspension in PBS was made and stored on ice for less than one hour. Drugs were suspended in DMSO and two-fold serial dilutions were prepared in PBS with a total volume of 100 μl in a 96-well round-bottom plate in triplicate. Wells containing PBS and Triton X-100 (Sigma) were used as negative and positive controls of hemolysis, respectively. A 100 μl aliquot of the 2% RBC suspension was then added to each well. The plate was then incubated at 37° C. for one hour. The plate was then centrifuged at 2,500 rpm for five minutes to pellet the RBCs. A 50 μl aliquot of the supernatant was transferred to a fresh 96-well plate, and absorbance at 405 nm was measured using an automated plate reader to quantify heme release.

Question: For N#Cc1c[nH]cc1-c1cccc2c1OC(F)(F)O2 [fludioxonil], which “Growth of Hik1 Saccharomyces on galactose with fludioxonil” value (Hik1 Saccharomyces; galactose (Hik1 induced)) is on record?
Answer: inhibited Saccharomyces growth

Question: What about the “Growth of Hik1 Saccharomyces in glucose with fludioxonil” value (Hik1 Saccharomyces; glucose, which does not induce Hik1) of the same molecule?
Answer: uninhibited

Question: And the “Inhibition of Aspergillus growth (zone of inhibition)” value (from here on “Inhibition of Aspergillus growth”) (Aspergillus fumigatus)?
Answer: created zones of inhibition

Question: For OC(Cn1cncn1)(Cn1cncn1)c1ccc(F)cc1F [fluconazole, reference compound], which growth reduction (Candida albicans biofilm; [5]) is on record?
Answer: 15%

Question: What about the growth reduction (Candida albicans biofilm; [6]) of the same molecule?
Answer: approximately 6%

Question: And the “Concentration inhibiting Candida biofilm growth” value [1]?
Answer: > 1000 µg/mL

Question: For O=[N+]([O-])c1ccc(/C=C/c2ccc([N+](=O)[O-])o2)cc1 [Compound 13], which “Synergy with Fluconazole by fractional inhibitory concentration (FIC)” value (Candida albicans biofilm) is on record?
Answer: synergy

Question: What about the growth reduction (Candida albicans biofilm; [5]) of the same molecule?
Answer: 18%

Question: And the “Hik1 reporter strain results corroborated with Drk1 reporter strain” value (Drk1 reporter strain)?
Answer: corroborated

Question: And the “Activity (MIC, cumulative inhibition)” value [2]?
Answer: active

Question: And the “Activity (MIC, cumulative inhibition)” value (C. lusitaniae)?
Answer: active

Question: And the “Activity (MIC, cumulative inhibition)” value (C. gattii)?
Answer: active

Question: And the “Activity (MIC, cumulative inhibition)” value (C. krusei)?
Answer: active

Question: What about the “Activity (MIC, cumulative inhibition)” value (Cryptococcus neoformans) of the same molecule?
Answer: active

Question: And the “Activity (MIC, cumulative inhibition)” value (Candida albicans)?
Answer: active

Question: And the “Activity (MIC, cumulative inhibition)” value (C. glabrata)?
Answer: active

Question: And the “Hemolysis (heme release, absorbance at 405 nm) compared with amphotericin B” value (human red blood cells)?
Answer: less hemolytic

Question: And the “Activity (MIC, cumulative inhibition)” value [3]?
Answer: active

Question: And the “Cumulative inhibition of Aspergillus flavus” value (Aspergillus flavus)?
Answer: inhibition

Question: And the “Inhibition of Aspergillus growth” value (Aspergillus fumigatus)?
Answer: inhibited growth

Question: What about the “Activity (MIC, cumulative inhibition)” value [4] of the same molecule?
Answer: active

Question: CSc1nnc(Sc2ncc([N+](=O)[O-])s2)s1 [Compound 33] was tested. Which “Synergy with Fluconazole by fractional inhibitory concentration (FIC)” value (Candida albicans biofilm) did it give?
Answer: synergy

Question: What about the growth reduction (Candida albicans biofilm; [6]) of the same molecule?
Answer: approximately 9%

Question: What about the “Hik1 reporter strain results corroborated with Drk1 reporter strain” value (Drk1 reporter strain) of the same molecule?
Answer: corroborated

Question: What about the “Activity (MIC, cumulative inhibition)” value [2] of the same molecule?
Answer: active

Question: And the “Activity (MIC, cumulative inhibition)” value (C. lusitaniae)?
Answer: active

Question: What about the “Activity (MIC, cumulative inhibition)” value (C. gattii) of the same molecule?
Answer: active

Question: And the “Activity (MIC, cumulative inhibition)” value (C. krusei)?
Answer: active

Question: What about the “Activity (MIC, cumulative inhibition)” value (Cryptococcus neoformans) of the same molecule?
Answer: active

Question: What about the “Activity (MIC, cumulative inhibition)” value (Candida albicans) of the same molecule?
Answer: active

Question: What about the “Activity (MIC, cumulative inhibition)” value (C. glabrata) of the same molecule?
Answer: active

Question: What about the “Hemolysis (heme release, absorbance at 405 nm) compared with amphotericin B” value (human red blood cells) of the same molecule?
Answer: less hemolytic

Question: And the “Activity (MIC, cumulative inhibition)” value [3]?
Answer: active

Question: And the “Cumulative inhibition of Aspergillus flavus” value (Aspergillus flavus)?
Answer: inhibition

Question: What about the “Inhibition of Aspergillus growth” value (Aspergillus fumigatus) of the same molecule?
Answer: inhibited growth

Question: What about the “Activity (MIC, cumulative inhibition)” value [4] of the same molecule?
Answer: active

Question: How did the “Inhibition of Aspergillus growth” value (Aspergillus fumigatus) turn out when C[C@@H]1[C@H](O)[C@@H](C)/C=C/C=C/C=C/C=C/C=C/C=C/C=C/[C@H](O[C@@H]2O[C@H](C)[C@@H](O)[C@H](N)[C@@H]2O)C[C@@H]2O[C@](O)(C[C@@H](O)C[C@@H](O)[C@H](O)CC[C@@H](O)C[C@@H](O)CC(=O)O[C@H]1C)C[C@H](O)[C@H]2C(=O)O [amphotericin B, reference compound] was run?
Answer: created zones of inhibition
